system: passive cutaneous anaphylaxis; assay: passive cutaneous anaphylaxis test (P.C.A.) on rats, oral administration; format: in vivo, rat (SLC Wister); conditions: 0.5 h, rat, 30 mg/kg, antigen 30 minutes after administration, read-out: Percent inhibition (%)
Protocol: Various 5-hydroxy-quinolopyran-4-one-2-carboxylic acid esters in terms of the R group represented by the general formula [I] were prepared. […] In order to estimate the efficacy of each compound as an anti-allergic antasthmatic, the efficacy was evaluated according to a passive cutaneous anaphylaxis test (P.C.A.) on rats.
To SLC Wister rats were administered intracutaneously egg white albumin recrystallized 5 times and Bodetallapertussis Vaccine, and serum was collected after 13 days from the rats. […] A physiological salt solution in which egg white albumin and a dye (Evans' blue) were dissolved was administered intravenously, 30 minutes after the oral administration, to the rats; and 30 minutes thereafter the back skins of the rats were peeled off. The dye that transuded from the peeled skin was extracted with Na2 SO4 and acetone, and the quantities of the dye were measured by colorimetry at 620 m μ.

Compound | inhibition in vivo at 30 mg/kg [%]
Cc1ccc2c(nc(O)c3c(=O)cc(C(=O)OC4CCCCC4)oc32)c1C [1-cyclohexyl ester of 7,8-dimethyl-5-hydroxy-quinolo[4,3-b]pyran-4-one-2-carboxylic acid, reference compound] | 33.7
Cc1ccc2c(nc(O)c3c(=O)cc(C(=O)OCC(C)(C)C)oc32)c1C [2,2-dimethyl-1-propyl ester of 7,8-dimethyl-5-hydroxy-quinolo[4,3-b]pyran-4-one-2-carboxylic acid] | 93.2
Cc1ccc2nc(O)c3c(=O)cc(C(=O)OCC(C)(C)C)oc3c2c1 [2,2-dimethyl-1-propyl ester of 9-methyl-5-hydroxy-quinolo[4,3-b]pyran-4-one-2-carboxylic acid] | 58.4
CCC(CC)COC(=O)c1cc(=O)c2c(O)nc3c(C)c(C)ccc3c2o1 [2-ethyl-1-butyl ester of 7,8-dimethyl-5-hydroxy-quinolo[4,3-b]pyran-4-one-2-carboxylic acid, reference compound] | 49.1
CCCCC(C)OC(=O)c1cc(=O)c2c(O)nc3c(C)c(C)ccc3c2o1 (stereo not shown) [2-hexyl ester of 7,8-dimethyl-5-hydroxy-quinolo[4,3-b]pyran-4-one-2-carboxylic acid] | 94.7
CCC(C)COC(=O)c1cc(=O)c2c(O)nc3c(C)c(C)ccc3c2o1 (stereo not shown) [2-methyl-1-butyl ester of 7,8-dimethyl-5-hydroxy-quinolo[4,3-b]pyran-4-one-2-carboxylic acid] | 99.8
CCC(C)COC(=O)c1cc(=O)c2c(O)nc3ccc(C)cc3c2o1 (stereo not shown) [2-methyl-1-butyl ester of 9-methyl-5-hydroxy-quinolo[4,3-b]pyran-4-one-2-carboxylic acid] | 83
CCCC(C)COC(=O)c1cc(=O)c2c(O)nc3ccc(C)cc3c2o1 (stereo not shown) [2-methyl-1-pentyl ester of 9-methyl-5-hydroxy-quinolo[4,3-b]pyran-4-one-2-carboxylic acid] | 83.8
Cc1ccc2c(nc(O)c3c(=O)cc(C(=O)OCC(C)C)oc32)c1C [2-methyl-1-propyl ester of 7,8-dimethyl-5-hydroxy-quinolo[4,3-b]pyran-4-one-2-carboxylic acid, reference compound] | 2.5
CCC(OC(=O)c1cc(=O)c2c(O)nc3c(C)c(C)ccc3c2o1)C(C)C (stereo not shown) [2-methyl-3-pentyl ester of 7,8-dimethyl-5-hydroxy-quinolo[4,3-b]pyran-4-one-2-carboxylic acid, reference compound] | 32.1
CCCC(C)OC(=O)c1cc(=O)c2c(O)nc3c(C)c(C)ccc3c2o1 (stereo not shown) [2-pentyl ester of 7,8-dimethyl-5-hydroxy-quinolo[4,3-b]pyran-4-one-2-carboxylic acid] | 95.1
CCCC(C)OC(=O)c1cc(=O)c2c(O)nc3ccc(C)cc3c2o1 (stereo not shown) [2-pentyl ester of 9-methyl-5-hydroxy-quinolo[4,3-b]pyran-4-one-2-carboxylic acid] | 70
Cc1ccc2c(nc(O)c3c(=O)cc(C(=O)OCCC(C)(C)C)oc32)c1C [3,3-dimethyl-1-butyl ester of 7,8-dimethyl-5-hydroxy-quinolo[4,3-b]pyran-4-one-2-carboxylic acid, reference compound] | 26.5
Cc1ccc2c(nc(O)c3c(=O)cc(C(=O)OC(C)C(C)(C)C)oc32)c1C (stereo not shown) [3,3-dimethyl-2-butyl ester of 7,8-dimethyl-5-hydroxy-quinolo[4,3-b]pyran-4-one-2-carboxylic acid, reference compound] | 42.7
CCCC(CC)OC(=O)c1cc(=O)c2c(O)nc3c(C)c(C)ccc3c2o1 (stereo not shown) [3-hexyl ester of 7,8-dimethyl-5-hydroxy-quinolo[4,3-b]pyran-4-one-2-carboxylic acid] | 96.1
CCCC(CC)OC(=O)c1cc(=O)c2c(O)nc3ccc(C)cc3c2o1 (stereo not shown) [3-hexyl ester of 9-methyl-5-hydroxy-quinolo[4,3-b]pyran-4-one-2-carboxylic acid] | 81.8

Compound | inhibition in vivo at 30 mg/kg [%]
Cc1ccc2c(nc(O)c3c(=O)cc(C(=O)OCCC(C)C)oc32)c1C [3-methyl-1-butyl ester of 7,8-dimethyl-5-hydroxy-quinolo[4,3-b]pyran-4-one-2-carboxylic acid] | 95.5
COc1cc2nc(O)c3c(=O)cc(C(=O)OCCC(C)C)oc3c2cc1OC [3-methyl-1-butyl ester of 8,9-dimethoxy-5-hydroxy-quinolo[4,3-b]pyran-4-one-2-carboxylic acid] | 67.3
CC(C)CCOC(=O)c1cc(=O)c2c(O)nc3ccc(Cl)cc3c2o1 [3-methyl-1-butyl ester of 9-chloro-5-hydroxy-quinolo[4,3-b]pyran-4-one-2-carboxylic acid] | 59.5
CCOC(=O)c1ccc2nc(O)c3c(=O)cc(C(=O)OCCC(C)C)oc3c2c1 [3-methyl-1-butyl ester of 9-ethoxycarbonyl-5-hydroxy-quinolo[4,3-b]pyran-4-one-2-carboxylic acid] | 52.7
Cc1ccc2nc(O)c3c(=O)cc(C(=O)OCCC(C)C)oc3c2c1 [3-methyl-1-butyl ester of 9-methyl-5-hydroxy-quinolo[4,3-b]pyran-4-one-2-carboxylic acid] | 87.2
CCCCc1ccc2nc(O)c3c(=O)cc(C(=O)OCCC(C)C)oc3c2c1 [3-methyl-1-butyl ester of 9-n-butyl-5-hydroxy-quinolo[4,3-b]pyran-4-one-2-carboxylic acid] | 64.5
CCC(C)CCOC(=O)c1cc(=O)c2c(O)nc3c(C)c(C)ccc3c2o1 (stereo not shown) [3-methyl-1-pentyl ester of 7,8-dimethyl-5-hydroxy-quinolo[4,3-b]pyran-4-one-2-carboxylic acid] | 80.8
Cc1ccc2c(nc(O)c3c(=O)cc(C(=O)OC(C)C(C)C)oc32)c1C (stereo not shown) [3-methyl-2-butyl ester of 7,8-dimethyl-5-hydroxy-quinolo[4,3-b]pyran-4-one-2-carboxylic acid, reference compound] | 22.6
CCC(C)C(C)OC(=O)c1cc(=O)c2c(O)nc3c(C)c(C)ccc3c2o1 (stereo not shown) [3-methyl-2-pentyl ester of 7,8-dimethyl-5-hydroxy-quinolo[4,3-b]pyran-4-one-2-carboxylic acid] | 68.3
CCC(CC)OC(=O)c1cc(=O)c2c(O)nc3c(C)c(C)ccc3c2o1 [3-pentyl ester of 7,8-dimethyl-5-hydroxy-quinolo[4,3-b]pyran-4-one-2-carboxylic acid] | 65.3
Cc1ccc2c(nc(O)c3c(=O)cc(C(=O)OCCCc4ccccc4)oc32)c1C [3-phenyl-1-propyl ester of 7,8-dimethyl-5-hydroxy-quinolo[4,3-b]pyran-4-one-2-carboxylic acid, reference compound] | -7.2
Cc1ccc2c(nc(O)c3c(=O)cc(C(=O)OCCCC(C)C)oc32)c1C [4-methyl-1-pentyl ester of 7,8-dimethyl-5-hydroxy-quinolo[4,3-b]pyran-4-one-2-carboxylic acid] | 78.5
Cc1ccc2c(nc(O)c3c(=O)cc(C(=O)OC(C)CC(C)C)oc32)c1C (stereo not shown) [4-methyl-2-pentyl ester of 7,8-dimethyl-5-hydroxy-quinolo[4,3-b]pyran-4-one-2-carboxylic acid] | 67.6
Cc1ccc2c(nc(O)c3c(=O)cc(C(=O)OC(C)C)oc32)c1C [isopropyl ester of 7,8-dimethyl-5-hydroxy-quinolo[4,3-b]pyran-4-one-2-carboxylic acid, reference compound] | 7.3
CCCCOC(=O)c1cc(=O)c2c(O)nc3c(C)c(C)ccc3c2o1 [n-butyl ester of 7,8-dimethyl-5-hydroxy-quinolo[4,3-b]pyran-4-one-2-carboxylic acid, reference compound] | 48.8

same assay, conditions: 0.5 h, rat, 100 mg/kg, antigen 30 minutes after administration, read-out: Percent inhibition (%)

Compound | inhibition in vivo at 100 mg/kg [%]
Cc1ccc2c(nc(O)c3c(=O)cc(C(=O)OCC(O)CO)oc32)c1C (stereo not shown) [2,3-dihydroxy-propyl ester of 7,8-dimethyl-5-hydroxy-quinolo[4,3-b]pyran-4-one-2-carboxylic acid, reference compound] | 8.6
Cc1ccc2c(nc(O)c3c(=O)cc(C(=O)OCCO)oc32)c1C [2-hydroxy-ethyl ester of 7,8-dimethyl-5-hydroxy-quinolo[4,3-b]pyran-4-one-2-carboxylic acid, reference compound] | 21.4
Cc1ccc2c(nc(O)c3c(=O)cc(C(=O)O)oc32)c1C [7,8-dimethyl-5-hydroxy-quinolo[4,3-b]pyran-4-one-2-carboxylic acid, reference compound] | 5.5
Cc1ccc2c(nc(O)c3c(=O)cc(C(=O)OCc4ccccc4)oc32)c1C [benzyl ester of 7,8-dimethyl-5-hydroxy-quinolo[4,3-b]pyran-4-one-2-carboxylic acid, reference compound] | 13.2
CCOC(=O)c1cc(=O)c2c(O)nc3c(C)c(C)ccc3c2o1 [ethyl ester of 7,8-dimethyl-5-hydroxy-quinolo[4,3-b]pyran-4-one-2-carboxylic acid, reference compound] | 36.1
COC(=O)c1cc(=O)c2c(O)nc3c(C)c(C)ccc3c2o1 [methyl ester of 7,8-dimethyl-5-hydroxy-quinolo[4,3-b]pyran-4-one-2-carboxylic acid, reference compound] | 39.4
